{"source": "paper PMC4326489", "about": "“Efficacy and pharmacokinetic evaluation of a novel anti-malarial compound (NP046) in a mouse model” (Malaria Journal, 2015)", "key": {"[1]": {"experiment": "Plasma protein binding by ultracentrifugation", "assay_type": "in vitro ADME", "conditions": "read-out: PPB (plasma protein binding) (converted)", "description": "In this study, since the NSB > 5%, ultracentrifugation was used to assess the PPB property of NP046 [for the methodology see Additional file 3]. […] Procedure for the determination of PPB by Ultracentrifugation (procedure was adopted from Barré et al., 1985; with a slight modification). Thaw plasma aliquots in a water bath at 22 °C. Centrifuge plasma aliquots at 2000 g for 5 minutes, and decant and pool the supernatant. Prepare plasma and PBS samples at a high concentration (1000 ng/ml), and low concentration (10 ng/ml) for all the test compounds under investigation. The PBS samples were used to determine the response of the unbound (or free) drug, and were not subjected to ultracentrifugation. Plasma samples were incubated at 37 °C in a water bath for 20minutes to allow samples to reach physiological temperature, and then the samples were aliquoted into BECKMAN Quick-Seal centrifuge tubes (13 ml). Ultracentrifuge plasma samples at 2 x 10^5 g for 6 hours at 37 °C using BECKMAN L8-[…] ultracentrifuge (80Ti). The supernatant was extracted, and its response was compared with that of the PBS extract after being analysed by the validated LC-MS/MS bioanalytical drug assay methods stated in chapters 8 and 9. PPB% was calculated using the equation: Where T = total drug concentration; and F = free drug concentration."}, "[2]": {"experiment": "Kinetic solubility (HPLC-UV)", "assay_type": "physicochemical", "conditions": "aqueous buffer, kinetic from dmso stock, PBS pH 2.0"}, "[3]": {"experiment": "Metabolic stability in mouse liver microsomes", "assay_type": "in vitro ADME", "conditions": "0-60 minutes, read-out: in vitro intrinsic clearance", "description": "Metabolism is an enzymatic process in which a drug is chemically modified into polar metabolites that can be more readily excreted from the body. Metabolism occurs mainly in the liver, and the intestine. The metabolic stability of NP046 was determined in human and mouse liver microsomes using a multiple-time-point method at 0, 5, 10, 30, and 60 minutes [for the methodology see Additional file 5].\nSummary of the assay method for the determination of microsomal stability:\nThe assay method was adopted from Obach, 1999, Giuliano et al., 2005, and Naritomi et al., 2001, with a slight modification.\nThe liver microsome (human and mouse) was thawed at 37 °C, and diluted to 0.4 mg/ml in a preheated (at 37 °C) 0.1 M phosphate buffer.\nThe primary stock solutions (10 mM) of the controls and test compounds were diluted as follows: first in DMSO to obtain 400 µM solutions followed by dilution in phosphate buffer to 40 µM, and were vortex mixed well by vortexing at each step of dilution.\nA reaction premix (in triplicate for each control and test compound) were prepared by mixing 15 µl of the 40 µM solution with 530 µl of 0.4 mg/ml microsome mixture in a premix plate, and mixed carefully using a plate shaker. […]\nThe intrinsic clearance (ml/min/kg) was calculated using the equation (Obach et al., 1997): […]"}, "[4]": {"experiment": "Lipophilicity, Log D by scaled-down shake-flask method (octanol/PBS)", "assay_type": "physicochemical", "conditions": "pH 7.4, read-out: Log D7.4", "description": "Lipophilicity is a compound’s tendency to partition into a non-polar lipid matrix versus an aqueous matrix. It is an important property of a drug which has a significant influence on the drug ADME/tox properties as well as its biological activity. […].\nStock solutions of NP046 and controls in DMSO (10 mM) were prepared and an aliquot of each phase (octanol/PBS) was analysed by an HPLC-Diode array detector (DAD) method. Chromatographic separation was achieved on a Phenomenex® Kinetex C18 (50 × 2.1 mm i.d. 2.6 μm) column with a gradient elution, using mobile phase (A) 5 mM ammonium format-acetonitrile (95:5, v/v) and (B) 5 mM ammonium format-acetonitrile (5:95, v/v). The Log D values were calculated using the analyte peak areas obtained from each phase (Octanol/PBS) according to the following equation [12]: [drawing 2]"}}, "data": [{"smiles": "Oc1cc(CCCc2ccc(F)cc2)ccc1CN1CCCCC1", "note": "[NP046, 5-(3-(4-fluorophenyl)propyl)-2-(piperidin-1-ylmethyl)phenol]", "values": [{"measurement": "fraction unbound at 6 h, 10 ng/ml", "setting": "[1]; at 10 ng/ml", "value": 0.797}, {"measurement": "fraction unbound at 6 h, 1000 ng/ml", "setting": "[1]; at 1000 ng/ml", "value": 0.72}, {"measurement": "solubility at 2 h", "setting": "[2]", "value": 185, "unit": "µM"}, {"measurement": "microsomal CLint at 0.99 µM", "setting": "[3]", "value": 657, "unit": "µL/min/mg"}, {"measurement": "logD", "setting": "[4]", "value": 2.6}]}]}
